Reference: PubChem BioAssay (NCI)
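Cells were grown in 96-well plates and exposed to each compound for 48 hours at five concentrations; endpoints were interpolated linearly between bracketing concentrations, or set to the highest concentration if not reached. TGI: total growth inhibition.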

Tests used:
Assay in all cases: DTP human tumour cell line panel, 48 h
786-0 renal = system: 786-0 renal
NCI-H460 lung = system: NCI-H460 lung
SK-OV-3 ovarian = system: SK-OV-3 ovarian
COLO 205 colon = system: COLO 205 colon
DMS 114 small cell lung = system: DMS 114 small cell lung
IGROV1 ovarian = system: IGROV1 ovarian
ACHN renal = system: ACHN renal
HOP-18 NSCLC = system: HOP-18 NSCLC
NCI-H226 lung = system: NCI-H226 lung
UACC-62 melanoma = system: UACC-62 melanoma
SW-620 colon = system: SW-620 colon
MALME-3M melanoma = system: MALME-3M melanoma
UO-31 renal = system: UO-31 renal
M14 melanoma = system: M14 melanoma
OVCAR-8 ovarian = system: OVCAR-8 ovarian
RXF-631 renal = system: RXF-631 renal
RPMI-8226 leukemia = system: RPMI-8226 leukemia
UACC-257 melanoma = system: UACC-257 melanoma
SN12C renal = system: SN12C renal
M19-MEL melanoma = system: M19-MEL melanoma
NCI-H522 lung = system: NCI-H522 lung
U251 CNS = system: U251 CNS
MOLT-4 leukemia = system: MOLT-4 leukemia
SF-268 CNS = system: SF-268 CNS
DLD-1 colon = system: DLD-1 colon
HCC-2998 colon = system: HCC-2998 colon
OVCAR-3 ovarian = system: OVCAR-3 ovarian
HL-60(TB) leukemia = system: HL-60(TB) leukemia
SK-MEL-5 melanoma = system: SK-MEL-5 melanoma
KM12 colon = system: KM12 colon
A549 NSCLC = system: A549 NSCLC
SK-MEL-2 melanoma = system: SK-MEL-2 melanoma
CAKI-1 renal = system: CAKI-1 renal
HT29 colon = system: HT29 colon
A498 renal = system: A498 renal
SF-539 CNS = system: SF-539 CNS
DMS 273 small cell lung = system: DMS 273 small cell lung
HOP-92 NSCLC = system: HOP-92 NSCLC
SNB-75 CNS = system: SNB-75 CNS
TK-10 renal = system: TK-10 renal
KM20L2 colon = system: KM20L2 colon
SNB-78 CNS = system: SNB-78 CNS
CCRF-CEM leukemia = system: CCRF-CEM leukemia
K-562 leukemia = system: K-562 leukemia
HCT-15 colon = system: HCT-15 colon
SF-295 CNS = system: SF-295 CNS
HCT-116 colon = system: HCT-116 colon
NCI-H23 lung = system: NCI-H23 lung
EKVX NSCLC = system: EKVX NSCLC
HOP-62 NSCLC = system: HOP-62 NSCLC
SK-MEL-28 melanoma = system: SK-MEL-28 melanoma
OVCAR-4 ovarian = system: OVCAR-4 ovarian
SNB-19 CNS = system: SNB-19 CNS
OVCAR-5 ovarian = system: OVCAR-5 ovarian
LXFL 529 NSCLC = system: LXFL 529 NSCLC
XF 498 CNS = system: XF 498 CNS
HS 578T breast = system: HS 578T breast
MDA-N = system: MDA-N
MDA-MB-231 breast = system: MDA-MB-231 breast
DU-145 prostate = system: DU-145 prostate
MDA-MB-435 = system: MDA-MB-435
LOX IMVI melanoma = system: LOX IMVI melanoma
T-47D breast = system: T-47D breast
PC-3 prostate = system: PC-3 prostate
BT-549 breast = system: BT-549 breast
NCI/ADR-RES ovarian = system: NCI/ADR-RES ovarian
MCF7 breast = system: MCF7 breast
RXF 393 renal = system: RXF 393 renal
SR leukemia = system: SR leukemia

Measured: TGI

Cn1c(=O)nc2n(-c3ccc(O)cc3)c3ccccc3nc-2c1=O
69.4 µM: MALME-3M melanoma
81.1 µM: M19-MEL melanoma
59.7 µM: SF-539 CNS
64.2 µM: OVCAR-3 ovarian
52.5 µM: UACC-62 melanoma
not listed: HS 578T breast | MDA-N | MDA-MB-231 breast | DU-145 prostate | MDA-MB-435 | LOX IMVI melanoma | T-47D breast | PC-3 prostate | BT-549 breast | NCI/ADR-RES ovarian | MCF7 breast | RXF 393 renal | SR leukemia
> 100 µM: all other assays above

COC(=O)Cc1cc(O)c2c(c1O)C(=O)c1ccccc1C2=O
> 93.2 µM: U251 CNS
> 84.5 µM: HS 578T breast
> 46.4 µM: HT29 colon
97.5 µM: MDA-MB-231 breast
> 87.1 µM: A498 renal
49 µM: SNB-75 CNS
> 77.1 µM: 786-0 renal
> 56.3 µM: MCF7 breast
56 µM: HOP-92 NSCLC
> 85.5 µM: SNB-19 CNS
63.3 µM: HOP-62 NSCLC
> 72.4 µM: SF-295 CNS
63.7 µM: RXF 393 renal
> 79.9 µM: TK-10 renal
> 77.9 µM: ACHN renal
not listed: XF 498 CNS
> 100 µM: all other assays above

O=C(N/N=C/c1ccccc1O)N/N=C/c1ccccc1O
not listed: SK-MEL-5 melanoma | KM12 colon | CAKI-1 renal | HS 578T breast | MDA-N | MDA-MB-231 breast | DU-145 prostate | MDA-MB-435 | T-47D breast | PC-3 prostate | BT-549 breast | NCI/ADR-RES ovarian | MCF7 breast | SR leukemia
> 100 µM: all other assays above
